Tests used:
Test in all cases: Z'-LYTE kinase panel
Assay type in all cases: biochemical
ADRBK1 (GRK2) = molecular target: T1, ADRBK1 (GRK2) (Homo sapiens, UniProt P25098)
T1 construct: purchased ThermoFisher (SelectScreen, Z'-LYTE)
T1 sequence (P25098 1-689): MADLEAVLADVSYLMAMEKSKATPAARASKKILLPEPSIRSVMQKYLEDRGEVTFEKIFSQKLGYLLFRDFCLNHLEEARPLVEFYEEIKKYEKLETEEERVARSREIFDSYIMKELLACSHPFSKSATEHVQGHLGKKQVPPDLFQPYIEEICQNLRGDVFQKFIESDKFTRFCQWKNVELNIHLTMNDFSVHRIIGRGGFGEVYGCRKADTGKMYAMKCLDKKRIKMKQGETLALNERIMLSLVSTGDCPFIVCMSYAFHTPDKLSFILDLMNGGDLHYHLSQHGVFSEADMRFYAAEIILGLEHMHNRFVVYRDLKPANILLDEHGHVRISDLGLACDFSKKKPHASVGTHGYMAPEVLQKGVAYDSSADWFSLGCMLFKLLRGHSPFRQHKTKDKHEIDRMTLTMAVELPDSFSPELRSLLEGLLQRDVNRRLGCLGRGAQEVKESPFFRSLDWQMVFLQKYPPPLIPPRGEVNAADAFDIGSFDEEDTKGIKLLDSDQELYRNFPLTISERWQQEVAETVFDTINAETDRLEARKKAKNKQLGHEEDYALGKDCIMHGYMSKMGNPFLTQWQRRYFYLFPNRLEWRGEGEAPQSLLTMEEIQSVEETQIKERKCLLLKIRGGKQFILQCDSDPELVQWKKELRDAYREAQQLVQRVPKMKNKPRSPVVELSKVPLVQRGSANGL
In short: (§1)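 The 225-kinase standard panel was run using the Z′-LYTE protocol, and inhibition was expressed as a percentage relative to uninhibited activity at 10 µM compound.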

CDC42 BPA (MRCKA) = molecular target: T2, CDC42 BPA (MRCKA) (Homo sapiens, UniProt Q5VT25)
T2 construct: purchased ThermoFisher (SelectScreen, Z'-LYTE)
In short: as §1

CSNK2A1 (CK2 alpha 1) = molecular target: T3, CSNK2A1 (CK2 alpha 1) (Homo sapiens, UniProt P68400)
T3 construct: purchased ThermoFisher (SelectScreen, Z'-LYTE)
In short: as §1

FGFR3 = molecular target: T4, FGFR3 (Homo sapiens, UniProt P22607)
T4 construct: purchased ThermoFisher (SelectScreen, Z'-LYTE)
In short: as §1

GRK6 = molecular target: T5, GRK6 (Homo sapiens, UniProt P43250)
T5 construct: purchased ThermoFisher (SelectScreen, Z'-LYTE)
In short: as §1

GRK7 = molecular target: T6, GRK7 (Homo sapiens, UniProt Q8WTQ7)
T6 construct: purchased ThermoFisher (SelectScreen, Z'-LYTE)
T6 sequence (Q8WTQ7 1-553): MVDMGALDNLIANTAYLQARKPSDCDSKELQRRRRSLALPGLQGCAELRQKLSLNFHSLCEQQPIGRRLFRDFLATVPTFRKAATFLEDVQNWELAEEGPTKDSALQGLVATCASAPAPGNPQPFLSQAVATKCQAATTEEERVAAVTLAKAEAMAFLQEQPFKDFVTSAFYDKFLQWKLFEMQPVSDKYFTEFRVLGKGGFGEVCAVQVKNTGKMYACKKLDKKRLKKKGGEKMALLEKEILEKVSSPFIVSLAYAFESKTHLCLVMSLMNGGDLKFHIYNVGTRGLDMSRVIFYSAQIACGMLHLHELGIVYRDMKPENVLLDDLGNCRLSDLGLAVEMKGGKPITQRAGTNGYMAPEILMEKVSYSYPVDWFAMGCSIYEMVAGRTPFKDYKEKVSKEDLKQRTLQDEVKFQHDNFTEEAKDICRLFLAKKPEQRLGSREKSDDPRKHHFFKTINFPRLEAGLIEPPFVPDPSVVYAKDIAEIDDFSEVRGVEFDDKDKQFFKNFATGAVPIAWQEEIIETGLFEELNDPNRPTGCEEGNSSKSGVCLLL
In short: as §1

HCK = molecular target: T7, HCK (Homo sapiens, UniProt P08631)
T7 construct: purchased ThermoFisher (SelectScreen, Z'-LYTE)
In short: as §1

JAK2 JH1 JH2 = molecular target: T8, JAK2 JH1 JH2 (Homo sapiens, UniProt O60674)
T8 construct: JAK2 JH1 JH2; purchased ThermoFisher (SelectScreen, Z'-LYTE)
In short: as §1

MAP2K1 (MEK1) = molecular target: T9, MAP2K1 (MEK1) (Homo sapiens, UniProt Q02750); conditions: 10 µM compound; ATP 100
T9 construct: purchased ThermoFisher (SelectScreen, Z'-LYTE)
In short: as §1

MAP3K8 (COT) = molecular target: T10, MAP3K8 (COT) (Homo sapiens, UniProt P41279); conditions: 10 µM compound; ATP 100
T10 construct: purchased ThermoFisher (SelectScreen, Z'-LYTE)
In short: as §1

MAPK1 (ERK2) = molecular target: T11, MAPK1 (ERK2) (Homo sapiens, UniProt P28482)
T11 construct: purchased ThermoFisher (SelectScreen, Z'-LYTE)
In short: as §1

MELK = molecular target: T12, MELK (Homo sapiens, UniProt Q14680)
T12 construct: purchased ThermoFisher (SelectScreen, Z'-LYTE)
In short: as §1

MYLK2 (skMLCK) = molecular target: T13, MYLK2 (skMLCK) (Homo sapiens, UniProt Q9H1R3)
T13 construct: purchased ThermoFisher (SelectScreen, Z'-LYTE)
In short: as §1

NTRK2 (TRKB) = molecular target: T14, NTRK2 (TRKB) (Homo sapiens, UniProt Q16620)
T14 construct: purchased ThermoFisher (SelectScreen, Z'-LYTE)
In short: as §1

PRKCE (PKC epsilon) = molecular target: T15, PRKCE (PKC epsilon) (Homo sapiens, UniProt Q02156)
T15 construct: purchased ThermoFisher (SelectScreen, Z'-LYTE)
T15 sequence (Q02156 1-737): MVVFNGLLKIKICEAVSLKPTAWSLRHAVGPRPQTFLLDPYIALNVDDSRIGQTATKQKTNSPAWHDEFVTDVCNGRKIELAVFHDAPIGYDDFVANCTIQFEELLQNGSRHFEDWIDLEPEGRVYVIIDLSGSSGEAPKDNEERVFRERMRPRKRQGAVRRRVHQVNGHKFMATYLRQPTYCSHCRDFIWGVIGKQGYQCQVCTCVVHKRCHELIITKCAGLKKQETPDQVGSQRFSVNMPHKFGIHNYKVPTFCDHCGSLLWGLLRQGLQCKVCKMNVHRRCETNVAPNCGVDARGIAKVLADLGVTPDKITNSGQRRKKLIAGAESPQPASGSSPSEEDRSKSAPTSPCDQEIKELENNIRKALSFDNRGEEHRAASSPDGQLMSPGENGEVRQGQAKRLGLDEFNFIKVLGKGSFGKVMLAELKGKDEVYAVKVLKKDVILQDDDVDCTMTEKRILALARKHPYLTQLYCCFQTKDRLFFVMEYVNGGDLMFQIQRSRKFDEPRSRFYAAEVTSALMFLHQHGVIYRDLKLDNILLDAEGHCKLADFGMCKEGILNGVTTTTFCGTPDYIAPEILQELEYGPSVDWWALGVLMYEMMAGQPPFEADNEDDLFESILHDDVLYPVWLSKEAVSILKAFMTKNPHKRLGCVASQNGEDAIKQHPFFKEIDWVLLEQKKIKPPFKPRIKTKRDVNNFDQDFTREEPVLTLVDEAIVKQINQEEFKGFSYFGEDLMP
In short: as §1

T12 sequence (Q14680 whole entry): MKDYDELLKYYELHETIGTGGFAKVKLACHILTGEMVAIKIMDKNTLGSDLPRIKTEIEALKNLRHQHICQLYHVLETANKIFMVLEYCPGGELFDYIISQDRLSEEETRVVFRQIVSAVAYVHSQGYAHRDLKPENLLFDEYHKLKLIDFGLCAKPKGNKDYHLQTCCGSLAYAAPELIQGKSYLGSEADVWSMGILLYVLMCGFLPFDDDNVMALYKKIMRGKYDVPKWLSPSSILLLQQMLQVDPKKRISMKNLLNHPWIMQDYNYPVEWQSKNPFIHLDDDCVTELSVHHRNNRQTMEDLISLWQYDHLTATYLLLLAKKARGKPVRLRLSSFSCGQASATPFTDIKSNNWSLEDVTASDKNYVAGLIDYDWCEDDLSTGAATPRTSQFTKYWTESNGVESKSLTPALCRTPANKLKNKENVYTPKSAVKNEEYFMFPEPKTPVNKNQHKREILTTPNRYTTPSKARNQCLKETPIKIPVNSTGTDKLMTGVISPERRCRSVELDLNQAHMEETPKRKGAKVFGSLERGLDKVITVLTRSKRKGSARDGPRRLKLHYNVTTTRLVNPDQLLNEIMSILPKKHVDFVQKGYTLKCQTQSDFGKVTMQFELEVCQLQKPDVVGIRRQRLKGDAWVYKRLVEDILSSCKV
T2 sequence (Q5VT25 whole entry): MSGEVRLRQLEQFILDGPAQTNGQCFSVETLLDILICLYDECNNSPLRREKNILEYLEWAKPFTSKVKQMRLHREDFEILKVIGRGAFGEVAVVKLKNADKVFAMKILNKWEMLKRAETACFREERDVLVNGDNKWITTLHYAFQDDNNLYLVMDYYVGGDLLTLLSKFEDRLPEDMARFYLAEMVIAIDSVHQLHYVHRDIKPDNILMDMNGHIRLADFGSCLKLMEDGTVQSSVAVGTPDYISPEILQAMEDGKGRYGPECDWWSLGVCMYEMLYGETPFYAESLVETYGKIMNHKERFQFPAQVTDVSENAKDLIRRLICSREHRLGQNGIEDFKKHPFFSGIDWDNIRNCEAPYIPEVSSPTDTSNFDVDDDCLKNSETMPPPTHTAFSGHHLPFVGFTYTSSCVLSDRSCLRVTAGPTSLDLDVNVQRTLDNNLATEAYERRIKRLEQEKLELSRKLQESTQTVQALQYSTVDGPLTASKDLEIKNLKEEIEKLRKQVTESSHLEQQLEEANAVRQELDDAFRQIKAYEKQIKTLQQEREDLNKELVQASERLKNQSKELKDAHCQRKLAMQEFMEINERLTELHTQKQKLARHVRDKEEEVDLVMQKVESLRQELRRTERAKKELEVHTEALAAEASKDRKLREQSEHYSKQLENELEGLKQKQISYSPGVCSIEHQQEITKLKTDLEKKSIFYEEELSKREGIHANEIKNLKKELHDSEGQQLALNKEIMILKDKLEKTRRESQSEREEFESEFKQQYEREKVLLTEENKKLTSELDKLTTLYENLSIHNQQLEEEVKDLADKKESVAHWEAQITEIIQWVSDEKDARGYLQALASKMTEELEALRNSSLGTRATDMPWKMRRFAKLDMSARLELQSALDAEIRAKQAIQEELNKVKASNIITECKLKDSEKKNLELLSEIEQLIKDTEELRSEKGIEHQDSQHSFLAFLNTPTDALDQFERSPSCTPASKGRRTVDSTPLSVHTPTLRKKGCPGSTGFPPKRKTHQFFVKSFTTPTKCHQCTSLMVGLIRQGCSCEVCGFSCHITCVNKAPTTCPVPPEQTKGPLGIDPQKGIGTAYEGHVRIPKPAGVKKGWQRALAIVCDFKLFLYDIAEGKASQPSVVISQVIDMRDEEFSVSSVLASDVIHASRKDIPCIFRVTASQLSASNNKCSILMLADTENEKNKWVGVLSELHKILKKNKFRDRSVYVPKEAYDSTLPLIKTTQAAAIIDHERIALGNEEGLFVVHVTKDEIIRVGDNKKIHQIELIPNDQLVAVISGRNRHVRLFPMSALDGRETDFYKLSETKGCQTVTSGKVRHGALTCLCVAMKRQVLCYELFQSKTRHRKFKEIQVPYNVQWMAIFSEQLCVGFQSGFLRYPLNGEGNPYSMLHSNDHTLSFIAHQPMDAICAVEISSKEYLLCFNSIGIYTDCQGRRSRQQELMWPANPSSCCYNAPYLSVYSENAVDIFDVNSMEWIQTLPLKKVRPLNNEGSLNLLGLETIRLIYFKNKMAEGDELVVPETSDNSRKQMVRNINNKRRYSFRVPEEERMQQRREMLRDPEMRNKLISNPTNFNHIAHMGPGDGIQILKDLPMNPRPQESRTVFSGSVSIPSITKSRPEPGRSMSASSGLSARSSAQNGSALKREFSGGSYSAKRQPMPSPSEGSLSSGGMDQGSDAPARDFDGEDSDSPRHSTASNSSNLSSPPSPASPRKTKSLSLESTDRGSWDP
T11 sequence (P28482 whole entry): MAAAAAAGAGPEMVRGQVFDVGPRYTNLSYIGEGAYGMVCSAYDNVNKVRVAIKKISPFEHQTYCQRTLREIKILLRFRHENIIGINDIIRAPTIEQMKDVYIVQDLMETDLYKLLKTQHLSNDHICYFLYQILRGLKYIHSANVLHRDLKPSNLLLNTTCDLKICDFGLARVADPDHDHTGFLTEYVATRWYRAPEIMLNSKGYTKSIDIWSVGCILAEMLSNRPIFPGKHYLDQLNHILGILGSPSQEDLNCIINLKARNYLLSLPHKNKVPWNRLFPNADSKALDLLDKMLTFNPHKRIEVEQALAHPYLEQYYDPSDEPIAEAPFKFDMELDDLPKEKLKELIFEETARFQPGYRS
T8 sequence (O60674 532-1132 limits assumed): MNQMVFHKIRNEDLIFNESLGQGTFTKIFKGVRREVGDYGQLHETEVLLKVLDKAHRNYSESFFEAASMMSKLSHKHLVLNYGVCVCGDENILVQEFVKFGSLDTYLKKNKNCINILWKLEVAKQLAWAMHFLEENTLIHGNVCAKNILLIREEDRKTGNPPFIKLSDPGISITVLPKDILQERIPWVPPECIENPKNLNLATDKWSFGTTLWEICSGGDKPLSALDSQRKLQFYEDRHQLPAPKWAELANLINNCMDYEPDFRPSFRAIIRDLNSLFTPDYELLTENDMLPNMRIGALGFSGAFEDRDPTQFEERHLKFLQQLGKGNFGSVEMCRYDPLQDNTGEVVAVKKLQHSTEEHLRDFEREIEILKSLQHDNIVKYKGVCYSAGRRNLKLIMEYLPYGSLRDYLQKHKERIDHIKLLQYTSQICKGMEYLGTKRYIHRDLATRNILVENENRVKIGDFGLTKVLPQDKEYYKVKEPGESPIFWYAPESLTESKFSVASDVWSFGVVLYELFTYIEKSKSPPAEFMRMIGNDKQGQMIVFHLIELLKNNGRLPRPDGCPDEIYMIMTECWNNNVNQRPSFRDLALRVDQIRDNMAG
T5 sequence (P43250 whole entry): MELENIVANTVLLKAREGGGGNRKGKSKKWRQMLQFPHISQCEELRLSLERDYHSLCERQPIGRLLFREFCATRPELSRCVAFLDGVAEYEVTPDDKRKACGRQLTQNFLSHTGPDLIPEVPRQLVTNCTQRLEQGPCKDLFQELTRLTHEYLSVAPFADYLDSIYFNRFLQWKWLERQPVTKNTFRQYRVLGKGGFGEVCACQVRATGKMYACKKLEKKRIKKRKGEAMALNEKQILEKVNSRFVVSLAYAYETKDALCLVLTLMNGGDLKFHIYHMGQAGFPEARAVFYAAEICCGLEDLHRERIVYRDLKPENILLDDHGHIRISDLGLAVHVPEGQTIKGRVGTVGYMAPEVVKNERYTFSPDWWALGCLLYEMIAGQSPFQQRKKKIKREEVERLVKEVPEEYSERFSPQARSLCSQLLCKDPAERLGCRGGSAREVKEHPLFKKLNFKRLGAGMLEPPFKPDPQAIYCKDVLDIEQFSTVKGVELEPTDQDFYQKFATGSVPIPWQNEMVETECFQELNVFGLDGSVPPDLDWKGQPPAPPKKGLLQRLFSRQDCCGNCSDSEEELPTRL
T10 sequence (P41279 whole entry): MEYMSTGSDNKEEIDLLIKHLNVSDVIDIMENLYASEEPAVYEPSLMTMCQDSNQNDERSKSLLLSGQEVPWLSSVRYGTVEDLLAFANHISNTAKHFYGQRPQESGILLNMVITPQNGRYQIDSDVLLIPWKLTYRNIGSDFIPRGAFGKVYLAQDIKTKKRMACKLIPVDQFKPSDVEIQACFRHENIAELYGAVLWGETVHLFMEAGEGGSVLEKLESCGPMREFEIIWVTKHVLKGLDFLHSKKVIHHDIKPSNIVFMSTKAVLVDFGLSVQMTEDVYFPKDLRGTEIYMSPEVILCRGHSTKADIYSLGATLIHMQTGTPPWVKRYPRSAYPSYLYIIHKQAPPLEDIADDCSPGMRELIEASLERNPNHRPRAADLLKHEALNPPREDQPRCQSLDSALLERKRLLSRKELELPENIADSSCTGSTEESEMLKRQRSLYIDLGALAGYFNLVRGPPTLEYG
T7 sequence (P08631 whole entry): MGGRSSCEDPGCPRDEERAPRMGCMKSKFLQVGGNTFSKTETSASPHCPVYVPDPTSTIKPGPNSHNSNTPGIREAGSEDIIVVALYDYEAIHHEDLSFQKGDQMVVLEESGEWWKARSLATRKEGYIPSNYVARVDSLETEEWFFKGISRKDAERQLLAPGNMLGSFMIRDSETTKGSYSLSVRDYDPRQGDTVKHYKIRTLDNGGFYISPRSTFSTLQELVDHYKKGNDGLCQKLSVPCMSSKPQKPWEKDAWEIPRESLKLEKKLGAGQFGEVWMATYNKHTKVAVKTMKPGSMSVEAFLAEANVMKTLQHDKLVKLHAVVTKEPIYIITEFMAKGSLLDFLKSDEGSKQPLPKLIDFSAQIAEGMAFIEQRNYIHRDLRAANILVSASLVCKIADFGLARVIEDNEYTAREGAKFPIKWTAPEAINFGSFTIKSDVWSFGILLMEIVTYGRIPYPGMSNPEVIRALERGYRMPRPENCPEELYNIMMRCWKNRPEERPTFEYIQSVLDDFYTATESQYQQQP

| Compound | inhibition at 10 µM (ADRBK1 (GRK2)) | inhibition at 10 µM (CDC42 BPA (MRCKA)) | inhibition at 10 µM (CSNK2A1 (CK2 alpha 1)) | inhibition at 10 µM (FGFR3) | inhibition at 10 µM (GRK6) | inhibition at 10 µM (GRK7) | inhibition at 10 µM (HCK) | inhibition at 10 µM (JAK2 JH1 JH2) | inhibition at 10 µM (MAP2K1 (MEK1)) | inhibition at 10 µM (MAP3K8 (COT)) | inhibition at 10 µM (MAPK1 (ERK2)) | inhibition at 10 µM (MELK) | inhibition at 10 µM (MYLK2 (skMLCK)) | inhibition at 10 µM (NTRK2 (TRKB)) | inhibition at 10 µM (PRKCE (PKC epsilon)) | also measured |
| --- | --- | --- | --- | --- | --- | --- | --- | --- | --- | --- | --- | --- | --- | --- | --- | --- |
| XMD8-92 [Compound 2, reference compound] | – | – | – | – | – | – | – | – | – | – | – | – | – | – | – | ADRBK1 (GRK2) % Inhibition (ADRBK1 (GRK2); 10 µM compound, ATP Km app): -1%; CDC42 BPA (MRCKA) % Inhibition (CDC42 BPA (MRCKA); 10 µM compound, ATP Km app): -2.25%; CSNK2A1 (CK2 alpha 1) % Inhibition (CSNK2A1 (CK2 alpha 1); 10 µM compound, ATP Km app): 8%; FGFR3 % Inhibition (FGFR3; 10 µM compound, ATP Km app): 9%; GRK6 % Inhibition (GRK6; 10 µM compound, ATP Km app): 1.47%; GRK7 % Inhibition (GRK7; 10 µM compound, ATP Km app): 39%; HCK % Inhibition (HCK; 10 µM compound, ATP Km app): 14%; JAK2 JH1 JH2 % Inhibition (JAK2 JH1 JH2; 10 µM compound, ATP Km app): 52%; MAP2K1 (MEK1) % Inhibition (MAP2K1 (MEK1)): 17%; MAP3K8 (COT) % Inhibition (MAP3K8 (COT)): 3.36%; MAPK1 (ERK2) % Inhibition (MAPK1 (ERK2); 10 µM compound, ATP Km app): 9%; MELK % Inhibition (MELK; 10 µM compound, ATP Km app): 80%; MYLK2 (skMLCK) % Inhibition (MYLK2 (skMLCK); 10 µM compound, ATP Km app): 42%; NTRK2 (TRKB) % Inhibition (NTRK2 (TRKB); 10 µM compound, ATP Km app): 81%; PRKCE (PKC epsilon) % Inhibition (PRKCE (PKC epsilon); 10 µM compound, ATP Km app): 1.55% |
| Cc1ncc(-c2nc(Nc3ccc(C(=O)NCCN4CCCCC4)cc3)ncc2F)n1C(C)C [Compound 3] | 17% | 17% | 40% | 54% | 53% | 40% | 48% | 76% | 97% | 89% | 39% | 100% | 78% | 87% | 45% | – |
| Cc1cc(Nc2nc(N)nn2C(=O)NC(C)C)ccc1Cl [Compound 5] | -0.227% | 5% | 8% | 13% | -0.556% | 10% | 16% | 25% | 8.53% | -2.72% | 6% | 4.73% | -0.775% | 29% | -17% | – |
